In patent US6569870B1, “Fluorinated quinolones as antimitotic and antitumor agents” (The University of North Carolina at Chapel Hill, priority 2000, dated 2003):
Where two headings read alike, the source gives them in different places.

How the values were obtained:
[1] = test system: K-562, leukemia cell line; experiment: NCI 60 human tumor cell line (HTCL) in vitro screen, K562; type: cell-based; details: log concentration that reduced cell growth by 50%, read-out: Cytotoxicity log GI50, K562 (converted)
Source text: (§1) This assay involves determination of a test agent's effect on growth parameters against a panel of approximately 60 human tumor cell lines, mostly derived from solid tumors.

[2] = test system: SF-295 CNS tumor cell line; experiment: NCI HTCL in vitro screen, SF-295; type: cell-based, human; details: for GI50: Homo sapiens, SF-295, log concentration that reduced cell growth by 50%, read-out: Cytotoxicity log GI50, SF-295 (converted)
Source text: as §1

SK-Me15, melanoma = experiment: NCI HTCL in vitro screen, SK-Me15; type: cell-based, human; details: log concentration that reduced cell growth by 50%; for GI50: Homo sapiens, read-out: Cytotoxicity log GI50, SK-Me15 (converted)
Source text: as §1

[3] = test system: OVCAR-3, ovarian cancer cell line; experiment: NCI HTCL in vitro screen, OVCAR-3; type: cell-based, human; details: for GI50: Homo sapiens, OVCAR-3, log concentration that reduced cell growth by 50%, read-out: Cytotoxicity log GI50, OVCAR-3 (converted)
Source text: as §1

[4] = test system: panel of approximately 60 human tumor cell lines; experiment: NCI HTCL in vitro screen, mean over all cell lines; type: cell-based; details: mean over all 60 cell lines; for GI50: Homo sapiens, read-out: Mean log GI50 (converted)
Description: Compounds 1-7 and 13 were tested in National Cancer Institute's HTCL screen (M. Grever et al., Seminars Oncol. 1992, 19, 622-638; A. Monks et al., J. Natl. Cancer Inst. 1991, 83, 757-766). This assay involves determination of a test agent's effect on growth parameters against a panel of approximately 60 human tumor cell lines, mostly derived from solid tumors.

[5] = test system: SF-268 CNS tumor cell line; experiment: NCI HTCL in vitro screen, SF-268; type: cell-based; details: Homo sapiens, log concentration that reduced cell growth by 50%, read-out: Cytotoxicity log GI50, SF-268 (converted)
Source text: as §1

[6] = test system: RXF-393, renal cancer cell line; experiment: NCI HTCL in vitro screen, RXF-393; type: cell-based, human; details: log concentration that reduced cell growth by 50%; for GI50: Homo sapiens, RXF 393, read-out: Cytotoxicity log GI50, RXF-393 (converted)
Source text: as §1

[7] = test system: HCT-116, colon cancer cell line; experiment: NCI HTCL in vitro screen, HCT116; type: cell-based, human; details: for GI50: Homo sapiens, HCT-116, log concentration that reduced cell growth by 50%, read-out: Cytotoxicity log GI50, HCT116 (converted)
Source text: as §1

[8] = test system: NCI-H226, non-small cell lung cancer cell line; experiment: NCI HTCL in vitro screen, NCI-H226; type: cell-based, human; details: for GI50: Homo sapiens, NCI-H226, log concentration that reduced cell growth by 50%, read-out: Cytotoxicity log GI50, NCI-H226 (converted)
Source text: as §1

tubulin [9] = test system: T1, tubulin; experiment: Inhibition of tubulin polymerization (ITP); type: biochemical; details: for IC50: 10 μM tubulin, read-out: ITP IC50 ± SD
T1 construct: ITP IC50 ± SD; other: 10 μM tubulin; ICB (% inhib ± SD); effect on tubulin polymerization; other: relative to combretastatin A-4; Ha

tubulin [10] = test system: T1, tubulin; details: data from literature (Kuo 1993; Hamel 1996; Xia 1998); read-out: ITP IC50 ± SD; cited from earlier work
tubulin [11] = test system: T1, tubulin; experiment: Inhibition of [3H]colchicine binding to tubulin (ICB); details: for ICB (% inhib ± SD): 5 μM [3H]colchicine, 1 μM tubulin
[12] = test system: OVCAR-3 ovarian cell line; details: mice bearing OVCAR-3 tumor; previously reported (background); cited from earlier work
tubulin [13] = details: previously reported (background); read-out: inhibition of tubulin polymerization IC50; cited from earlier work
[14] = test system: panel of approximately 60 human tumor cell lines; details: previously reported (L. Li et al. 1994); cited from earlier work

| IC50 (tubulin [9]) [µM] | melting point [°C] | SMILES | GI50 [1] [µM] | GI50 [2] [µM] | GI50 (SK-Me15, melanoma) [µM] | GI50 [3] [nM] | GI50 [4] [µM] | GI50 [5] [µM] | GI50 [6] [µM] | GI50 [7] [µM] | GI50 [8] [µM] | other results |
| --- | --- | --- | --- | --- | --- | --- | --- | --- | --- | --- | --- | --- |
|  |  | Fc1ccccc1-c1cc(=S)c2cc3c(cc2[nH]1)OCO3 [Compound 6, 2′-Fluoro-6,7-(methylenedioxy)-2-phenylquino-4-thione] | 56.2 | 11.7 | 4.07 | 21400 | 15.5 | 20 | 29.5 | 5.5 | 16.6 |  |
| > 20 | > 300 | O=C(O)COc1cc(-c2ccccc2F)nc2cc3c(cc12)OCO3 [Compound 3, 2′-Fluoro-6,7-(methylenedioxy)-2-phenyl-4-(O-acetic acid)quinoline] | > 100 | > 100 | > 100 | > 100000 | > 100 | > 100 | > 100 | > 100 | > 100 |  |
|  |  | O=c1[nH]c(C=Cc2ccccc2)nc2ccccc12 [Compound 18, 2-styrylquinazolin-4(3H)-one] |  |  |  |  |  |  |  |  |  | IC50 (tubulin [10]): 5 ± 0.6 µM |
| 3.2 ± 1 |  | CC(C)(C)OC(=O)n1c(-c2ccccc2F)cc(=O)c2cc3c(cc21)OCO3 [Compound 7, N-Boc-2′-fluoro-6,7-(methylenedioxy)-2-phenyl-4-quinolone] | > 100 | 0.117 |  | 32.4 | 0.589 |  | > 100 | 0.0447 | 0.0251 | cytotoxicity relative to 1, SF-295 ([2]; relative to compound 1): less active than 1; cytotoxicity relative to 1, OVCAR-3 ([3]; relative to compound 1): equipotent with 1; effect on tubulin polymerization (tubulin [9]): moderate activity; cytotoxicity relative to 1, HCT-116 ([7]; relative to compound 1): equipotent with 1; fold more active than 1 against NCI-H226 ([8]; relative to compound 1): ~20 fold |
| 0.46 |  | Oc1cc(-c2ccccc2F)nc2ccc(N3CCCC3)cc12 [Compound 13] | 0.0324 |  | < 0.01 |  |  | 0.0389 | < 0.01 |  |  | Cytotoxicity log GI50, SK-Me15 (SK-Me15, melanoma): <−8.00 M; Mean log GI50 [4]: −7.62 M; Cytotoxicity log GI50, RXF-393 [6]: <−8.00 M; ICB (% inhib ± SD) (tubulin [11]; 1 μM inhibitor): 76 ± 5 % inhib; ICB (% inhib ± SD) (tubulin [11]; 5 μM inhibitor): 93 ± 1 % inhib; inhibition of [3H]colchicine binding to tubulin (tubulin [11]; relative to combretastatin A-4): nearly as active as the highly potent combretastatin A-4 |
| 0.68 ± 0.02 |  | O=c1cc(-c2ccccc2F)[nH]c2cc3c(cc12)OCO3 [Compound 1, 2′-Fluoro-6,7-(methylenedioxy)-2-phenyl-4-quinolone] |  | 0.055 | 0.0209 | 81.3 | 0.135 | 2.29 |  | 0.0603 | 0.447 | prolonging the life span of mice bearing the tumor [12]: 130%; ICB (% inhib ± SD) (tubulin [11]; 5 μM inhibitor): 39 ± 2 % inhib; IC50 (tubulin [13]): 850 nM; average log G150 value in the HTCL screen [14]: −6.47 |
| 12 ± 3 | > 300 | O=C(O)CCCOc1cc(-c2ccccc2F)nc2cc3c(cc12)OCO3 [Compound 5, 2′-Fluoro-6,7-(methylenedioxy)-2-phenyl-4-(O-ethyl 4′-butylacetic acid)quinoline] |  |  |  |  | 4.68 |  |  |  |  |  |
| > 40 | 93 to 94 | CCOC(=O)CCCOc1cc(-c2ccccc2F)nc2cc3c(cc12)OCO3 [Compound 4, 2′-Fluoro-6,7-(methylenedioxy)-2-phenyl-4-(O-ethyl 4′-butyrate)quinoline] |  |  | 57.5 |  | 47.9 | > 100 |  | > 100 |  |  |
| > 40 | 119 to 120 | CCOC(=O)COc1cc(-c2ccccc2F)nc2cc3c(cc12)OCO3 [Compound 2, 2′-Fluoro-6,7-(methylenedioxy)-2-phenyl-4-(O-ethylacetate)quinoline] | 38 | > 100 | 72.4 |  | 79.4 | > 100 | > 100 | 72.4 | > 100 |  |
